Experimental findings from US10030020B2, “Spirocycle compounds and methods of making and using same” (Abide Therapeutics, Inc., priority 2016, dated 2018) are described below.

Common to all, as to type: biochemical
In one test the target is FAAH (Mus musculus (Mouse), UniProt O08914). The experiment in a line: In vitro competitive activity-based protein profiling (mouse brain membrane fraction or cell lysates), FAAH band. The conditions noted are these: mouse proteome; for inhibition at 1 µM: read-out: FAAH % Inh 1 μM (mouse); for pIC50: competitive ABPP. In a few lines: (§1)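 Residual hydrolase activity was measured as gel band fluorescence after FP-Rh labelling (30 min, 37° C) of proteomes pretreated 30 min at 37° C with inhibitor.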
Sequence of FAAH (O08914 whole entry): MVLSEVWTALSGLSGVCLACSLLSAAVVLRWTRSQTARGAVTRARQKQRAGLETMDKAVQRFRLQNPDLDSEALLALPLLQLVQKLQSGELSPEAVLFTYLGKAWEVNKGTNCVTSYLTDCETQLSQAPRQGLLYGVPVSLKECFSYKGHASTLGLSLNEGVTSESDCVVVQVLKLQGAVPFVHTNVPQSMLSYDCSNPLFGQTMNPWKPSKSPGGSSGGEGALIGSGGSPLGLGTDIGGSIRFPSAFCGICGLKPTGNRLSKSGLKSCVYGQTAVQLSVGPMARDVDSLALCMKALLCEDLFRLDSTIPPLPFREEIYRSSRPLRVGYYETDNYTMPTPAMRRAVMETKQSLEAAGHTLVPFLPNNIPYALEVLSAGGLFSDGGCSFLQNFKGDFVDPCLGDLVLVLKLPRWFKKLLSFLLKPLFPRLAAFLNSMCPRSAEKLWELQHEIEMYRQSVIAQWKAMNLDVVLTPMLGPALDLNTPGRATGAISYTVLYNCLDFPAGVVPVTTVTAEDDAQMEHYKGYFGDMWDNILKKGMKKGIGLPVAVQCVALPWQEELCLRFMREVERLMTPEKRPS

Another test concerns the target MAGL (Mus musculus (Mouse), UniProt O35678). In words: In vitro competitive activity-based protein profiling (mouse brain membrane fraction or cell lysates), MAGL band. Particulars: mouse proteome; for inhibition at 1 µM: read-out: MAGL % Inh 1 μM (mouse); for pIC50: competitive ABPP. As to the method:
In Vitro Competitive Activity-Based Protein Profiling.
Proteomes (mouse brain membrane fraction or cell lysates) (50 μL, 1.0 mg/mL total protein concentration) were preincubated with varying concentrations of inhibitors at 37° C. After 30 min, FP—Rh (1.0 μL, 50 μM in DMSO) was added and the mixture was incubated for another 30 min at 37° C. Reactions were quenched with SDS loading buffer (50 μL-4×) and run on SDS-PAGE.

Another test addresses ABHD6 (Mus musculus (Mouse), UniProt Q8R2Y0). The experiment in a line: In vitro competitive activity-based protein profiling (mouse brain membrane fraction or cell lysates), ABHD6 band. Particulars: mouse proteome; for inhibition at 1 µM: read-out: ABHD6 % Inh 1 μM (mouse); for pIC50: competitive ABPP. In short, it runs like this: as §1

The structures appear in SMILES notation. pIC50: −log10 of the molar value.

Sequence of ABHD6 (Q8R2Y0 whole entry): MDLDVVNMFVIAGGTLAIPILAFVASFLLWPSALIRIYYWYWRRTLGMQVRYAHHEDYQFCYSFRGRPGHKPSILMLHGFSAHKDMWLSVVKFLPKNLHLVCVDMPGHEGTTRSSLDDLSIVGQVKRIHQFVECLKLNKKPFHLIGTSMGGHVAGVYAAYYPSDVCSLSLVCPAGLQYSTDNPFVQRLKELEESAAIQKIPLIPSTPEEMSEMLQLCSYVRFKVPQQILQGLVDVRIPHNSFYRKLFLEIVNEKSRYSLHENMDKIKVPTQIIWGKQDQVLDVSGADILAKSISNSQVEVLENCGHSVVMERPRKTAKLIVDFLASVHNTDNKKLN
Sequence of MAGL (O35678 whole entry): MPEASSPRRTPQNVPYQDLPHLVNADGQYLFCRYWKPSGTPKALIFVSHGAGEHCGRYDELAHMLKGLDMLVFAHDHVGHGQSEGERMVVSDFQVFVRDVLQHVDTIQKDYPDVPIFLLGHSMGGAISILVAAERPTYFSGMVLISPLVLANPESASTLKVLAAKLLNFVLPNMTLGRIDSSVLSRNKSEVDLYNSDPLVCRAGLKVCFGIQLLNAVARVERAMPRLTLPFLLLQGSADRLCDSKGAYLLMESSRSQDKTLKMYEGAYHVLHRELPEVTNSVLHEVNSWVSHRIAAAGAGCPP

By pIC50 is commonly meant the negative decadic logarithm of the IC50, by convention in mol/L. Higher therefore signals a small IC50. `O=C(OC(C(F)(F)F)C(F)(F)F)N1CCC2(CCN(Cc3ccc4c(c3)OCCO4)C2)CC1` [Example 137, 1,1,1,3,3,3-Hexafluoropropan-2-yl 2-((2,3-dihydrobenzo[b][1,4]dioxin-6-yl)methyl)-2,8-diazaspiro[4.5]decane-8-carboxylate]: the results for the inhibition at 1 µM on FAAH, at MAGL and at ABHD6 were less than 25%, greater than 75% and no less than 75%, respectively. For the same molecule, the pIC50 on FAAH is less than 6.00; on MAGL, 6.00 to 7.00; at ABHD6 it was greater than 7.00.

For `O=C(OC(C(F)(F)F)C(F)(F)F)N1CCC2(CCN(Cc3ccc(N4CCOCC4)c(Cl)c3)C2)CC1` [Example 138, 1,1,1,3,3,3-Hexafluoropropan-2-yl 2-(3-chloro-4-morpholinobenzyl)-2,8-diazaspiro[4.5]decane-8-carboxylate], the inhibition at 1 µM at FAAH is less than 25%; at MAGL, greater than 75%; on ABHD6, no less than 75%. The pIC50 at FAAH is less than 6.00; at ABHD6 it was greater than 7.00.

On to `O=C(OC(C(F)(F)F)C(F)(F)F)N1CCC2(CCN(Cc3ccc(N4CCCC4)c(Cl)c3)C2)CC1` [Example 139, 1,1,1,3,3,3-Hexafluoropropan-2-yl 2-(3-chloro-4-(pyrrolidin-1-yl)benzyl)-2,8-diazaspiro[4.5]decane-8-carboxylate], for which the results for the inhibition at 1 µM on FAAH, on MAGL and on ABHD6 were less than 25%, greater than 75% and no less than 75%, respectively. The pIC50 on FAAH was less than 6.00; on MAGL, 6.00 to 7.00; on ABHD6, 6.00 to 7.00.

In the case of `O=C(OC(C(F)(F)F)C(F)(F)F)N1CCC2(CCN(Cc3ccc(N4CCOCC4)c(C(F)(F)F)c3)C2)CC1` [Example 140, 1,1,1,3,3,3-Hexafluoropropan-2-yl 2-(4-morpholino-3-(trifluoromethyl)benzyl)-2,8-diazaspiro[4.5]decane-8-carboxylate], the inhibition at 1 µM was less than 25% on FAAH, greater than 75% on MAGL and no less than 75% at ABHD6. The pIC50 at FAAH is less than 6.00; at MAGL, greater than 7.00; at ABHD6, 6.00 to 7.00.

`O=C(OC(C(F)(F)F)C(F)(F)F)N1CCC2(CCN(Cc3ccc(N4CCCC4)c(C(F)(F)F)c3)C2)CC1` [Example 141, 1,1,1,3,3,3-Hexafluoropropan-2-yl 2-(4-(pyrrolidin-1-yl)-3-(trifluoromethyl)benzyl)-2,8-diazaspiro[4.5]decane-8-carboxylate]: the inhibition at 1 µM is less than 25% at FAAH, greater than 75% at MAGL and no less than 75% on ABHD6. Moreover, the figures for the pIC50 at FAAH, on MAGL and at ABHD6 were less than 6.00, 6.00 to 7.00 and 6.00 to 7.00, respectively.

For the molecule `CC(=O)N1CCCc2cccc(CN3CCCC34CCN(C(=O)OC(C(F)(F)F)C(F)(F)F)CC4)c21` [Example 142, 1,1,1,3,3,3-Hexafluoropropan-2-yl 1-((1-acetyl-1,2,3,4-tetrahydroquinolin-8-yl)methyl)-1,8-diazaspiro[4.5]decane-8-carboxylate], the figures for the inhibition at 1 µM at FAAH, on MAGL and at ABHD6 were less than 25%, greater than 75% and less than 25%, respectively. In addition, the pIC50 at FAAH was less than 6.00; on MAGL, 6.00 to 7.00; on ABHD6, less than 6.00.

On to `CS(=O)(=O)N1CCCc2cccc(CN3CCCC34CCN(C(=O)OC(C(F)(F)F)C(F)(F)F)CC4)c21` [Example 143, 1,1,1,3,3,3-Hexafluoropropan-2-yl 1-((1-methanesulfonyl-1,2,3,4-tetrahydroquinolin-8-yl)methyl)-1,8-diazaspiro[4.5]decane-8-carboxylate], for which the inhibition at 1 µM at FAAH was less than 25%; at MAGL, greater than 75%; at ABHD6 it was less than 25%. Besides, the pIC50 at FAAH was less than 6.00; on MAGL, greater than 7.00; on ABHD6, less than 6.00.

`CCN1CCc2cccc(CN3CCCC34CCN(C(=O)OC(C(F)(F)F)C(F)(F)F)CC4)c2C1` [Example 144, 1,1,1,3,3,3-Hexafluoropropan-2-yl 1-((2-ethyl-1,2,3,4-tetrahydroisoquinolin-8-yl)methyl)-1,8-diazaspiro[4.5]decane-8-carboxylate]: the results for the inhibition at 1 µM at FAAH, on MAGL and at ABHD6 were less than 25%, greater than 75% and 25 to 75%, respectively. The pIC50 was less than 6.00 at FAAH, 6.00 to 7.00 at MAGL and less than 6.00 at ABHD6.

In the case of `CC(=O)N1CCc2cccc(CN3CCCC34CCN(C(=O)OC(C(F)(F)F)C(F)(F)F)CC4)c2C1` [Example 145, 1,1,1,3,3,3-Hexafluoropropan-2-yl 1-((2-acetyl-1,2,3,4-tetrahydroisoquinolin-8-yl)methyl)-1,8-diazaspiro[4.5]decane-8-carboxylate], the values for the inhibition at 1 µM at FAAH, at MAGL and at ABHD6 were less than 25%, greater than 75% and less than 25%, respectively. For the same molecule, the pIC50 was less than 6.00 at FAAH, greater than 7.00 at MAGL and less than 6.00 at ABHD6.

Turning to `CC(C)N1CCc2cccc(CN3CCCC34CCN(C(=O)OC(C(F)(F)F)C(F)(F)F)CC4)c2C1` [Example 147, 1,1,1,3,3,3-Hexafluoropropan-2-yl 1-((2-isopropyl-1,2,3,4-tetrahydroisoquinolin-8-yl)methyl)-1,8-diazaspiro[4.5]decane-8-carboxylate], the inhibition at 1 µM at FAAH was less than 25%; at MAGL, greater than 75%; on ABHD6, less than 25%. Besides, the results for the pIC50 on FAAH, on MAGL and at ABHD6 were less than 6.00, 6.00 to 7.00 and less than 6.00, respectively.

In the case of `O=C(OC(C(F)(F)F)C(F)(F)F)N1CCC2(CCCN2Cc2cccc3c2CN(C2CC2)CC3)CC1` [Example 148, 1,1,1,3,3,3-Hexafluoropropan-2-yl 1-((2-cyclopropyl-1,2,3,4-tetrahydroisoquinolin-8-yl)methyl)-1,8-diazaspiro[4.5]decane-8-carboxylate], the inhibition at 1 µM at FAAH was less than 25%; at MAGL, greater than 75%; at ABHD6, less than 25%. Besides, the pIC50 on FAAH was less than 6.00; on MAGL it was greater than 7.00; on ABHD6, less than 6.00.

For `CC(C)CN1CCc2cccc(CN3CCCC34CCN(C(=O)OC(C(F)(F)F)C(F)(F)F)CC4)c2C1` [Example 149, 1,1,1,3,3,3-Hexafluoropropan-2-yl 1-((2-(2-methylpropyl)-1,2,3,4-tetrahydroisoquinolin-8-yl)methyl)-1,8-diazaspiro[4.5]decane-8-carboxylate], the figures for the inhibition at 1 µM at FAAH, at MAGL and on ABHD6 were less than 25%, greater than 75% and 25 to 75%, respectively. Besides, the pIC50 at FAAH was less than 6.00; at MAGL, 6.00 to 7.00; at ABHD6 it was less than 6.00.

In the case of `O=C(OC(C(F)(F)F)C(F)(F)F)N1CCC2(CCN(Cc3ccc4c(c3)COC4)C2)CC1` [Example 153, 1,1,1,3,3,3-Hexafluoropropan-2-yl 2-((1,3-dihydroisobenzofuran-5-yl)methyl)-2,8-diazaspiro[4.5]decane-8-carboxylate], the inhibition at 1 µM at FAAH is less than 25%; on MAGL, greater than 75%; on ABHD6, no less than 75%. Besides, the pIC50 is less than 6.00 on FAAH, 6.00 to 7.00 at MAGL and greater than 7.00 on ABHD6.

`O=C(OC(C(F)(F)F)C(F)(F)F)N1CCC2(CCN(Cc3ccc(Cl)c(N4CCOCC4)c3)C2)CC1` [Example 154, 1,1,1,3,3,3-Hexafluoropropan-2-yl 2-(4-chloro-3-morpholinobenzyl)-2,8-diazaspiro[4.5]decane-8-carboxylate]: the inhibition at 1 µM at FAAH is less than 25%; on MAGL it was greater than 75%; at ABHD6 it was no less than 75%. Besides, the pIC50 on FAAH was less than 6.00; on MAGL, greater than 7.00; at ABHD6, 6.00 to 7.00.

Take `O=C(OC(C(F)(F)F)C(F)(F)F)N1CCC2(CCN(Cc3ccc(Cl)c(N4CCCC4)c3)C2)CC1` [Example 155, 1,1,1,3,3,3-Hexafluoropropan-2-yl 2-(4-chloro-3-(pyrrolidin-1-yl)benzyl)-2,8-diazaspiro[4.5]decane-8-carboxylate]: the inhibition at 1 µM at FAAH is less than 25%; on MAGL it was greater than 75%; on ABHD6 it was no less than 75%. Further, the pIC50 at FAAH was less than 6.00; at MAGL, greater than 7.00; on ABHD6, 6.00 to 7.00.

For `O=C(OC(C(F)(F)F)C(F)(F)F)N1CCC2(CCN(Cc3ccc(C(F)(F)F)c(N4CCOCC4)c3)C2)CC1` [Example 156, 1,1,1,3,3,3-Hexafluoropropan-2-yl 2-(3-morpholino-4-(trifluoromethyl)benzyl)-2,8-diazaspiro[4.5]decane-8-carboxylate], the values for the inhibition at 1 µM on FAAH, on MAGL and on ABHD6 were less than 25%, greater than 75% and no less than 75%, respectively. The pIC50 was less than 6.00 at FAAH, greater than 7.00 at MAGL and 6.00 to 7.00 at ABHD6.

On to `CCN1CCCc2cccc(CN3CCCC34CCN(C(=O)OC(C(F)(F)F)C(F)(F)F)CC4)c21` [Example 158, 1,1,1,3,3,3-Hexafluoropropan-2-yl 1-((1-ethyl-1,2,3,4-tetrahydroquinolin-8-yl)methyl)-1,8-diazaspiro[4.5]decane-8-carboxylate], for which the values for the inhibition at 1 µM on FAAH, on MAGL and on ABHD6 were less than 25%, greater than 75% and less than 25%, respectively. The negative-log IC50 (pIC50) on FAAH was less than 6.00; on MAGL it was 6.00 to 7.00; at ABHD6, less than 6.00.
